How the values were obtained:
[1] = Oral bioavailability in rat; type: ADME, organism-based; conditions: in vivo
Mus musculus [2] = test: Toxicity in Swiss mouse assessed as horizontal activity count at 0.5 mg/kg, ip after 30 mins measured for 120 mins by open field locomotor activity test; type: organism-based; parameters: dose 0.5 mg/kg, route intraperitoneal; conditions: in vivo
Mus musculus [3] = test: Antidepressant activity in Swiss mouse assessed as reduction of immobility time at 0.5 mg/kg, ip after 30 mins by forced swimming test relative to vehicle-treated control; type: functional; parameters: scale not given: the % may be the effect or the level left; conditions: route intraperitoneal
Mus musculus [4] = test: Antidepressant activity in Swiss mouse assessed as reduction of immobility time at 1 mg/kg, ip after 30 mins by forced swimming test relative to vehicle-treated control; type: functional; parameters: scale not given: the % may be the effect or the level left; conditions: route intraperitoneal
Mus musculus [5] = test: Toxicity in Swiss mouse assessed as total distance travelled at 0.5 mg/kg, ip after 30 mins measured for 120 mins by open field locomotor activity test; type: organism-based; parameters: dose 0.5 mg/kg, route intraperitoneal; conditions: in vivo, 2 h
Mus musculus [6] = species: Mus musculus; test: Toxicity in Swiss mouse assessed as effect on neuro-muscular coordination after 30 to 180 mins by rotarod test; type: organism-based; conditions: in vivo
Mus musculus [7] = test: Antidepressant activity in Swiss mouse assessed as reduction of immobility time at 0.25 mg/kg, ip after 30 mins by forced swimming test relative to vehicle-treated control; type: functional; parameters: scale not given: the % may be the effect or the level left; conditions: route intraperitoneal
Mus musculus [8] = test: Antidepressant activity in Swiss mouse assessed as reduction of immobility time at 0.5 mg/kg, ip by tail suspension test relative to vehicle-treated control; type: functional; parameters: scale not given: the % may be the effect or the level left; conditions: route intraperitoneal
[9] = AUC (0 to infinity) in Swiss albino mouse at 1 mg/kg, iv; type: ADME, organism-based; parameters: time infinity, dose 1 mg/kg, route intravenous; conditions: plasma
[10] = Bioavailability in Swiss albino mouse at 10 mg/kg, ip; conditions: in vivo, intraperitoneal
Mus musculus [11] = test: Volume of distribution in Swiss albino mouse at 10 mg/kg, ip; type: ADME, organism-based; parameters: dose 10 mg/kg, route intraperitoneal; conditions: in vivo
[12] = Terminal half life in Swiss albino mouse at 1 mg/kg, iv; type: ADME, organism-based; parameters: dose 1 mg/kg, route intravenous; conditions: in vivo, read-out: beta t1/2 (converted)
[13] = Terminal half life in Swiss albino mouse at 10 mg/kg, ip; type: ADME, organism-based; parameters: dose 10 mg/kg, route intraperitoneal; conditions: in vivo, read-out: beta t1/2 (converted)
[14] = Tmax in Swiss albino mouse at 10 mg/kg, ip; type: ADME, organism-based; parameters: dose 10 mg/kg, route intraperitoneal; conditions: in vivo
[15] = Clearance in Swiss albino mouse at 10 mg/kg, ip; type: ADME, organism-based; parameters: dose 10 mg/kg, route intraperitoneal; conditions: in vivo
[16] = AUC (0 to infinity) in Swiss albino mouse at 10 mg/kg, ip; type: ADME, organism-based; parameters: time infinity, dose 10 mg/kg, route intraperitoneal; conditions: plasma
[17] = Cmax in Swiss albino mouse at 10 mg/kg, ip; type: ADME, organism-based; parameters: dose 10 mg/kg, route intraperitoneal; conditions: in vivo
[18] = Clearance in Swiss albino mouse at 1 mg/kg, iv; type: ADME, organism-based; parameters: dose 1 mg/kg, route intravenous; conditions: in vivo
[19] = Volume of distribution in Swiss albino mouse at 1 mg/kg, iv; type: ADME, organism-based; parameters: dose 1 mg/kg, route intravenous; conditions: in vivo
[20] = Cmax in Swiss albino mouse at 1 mg/kg, iv; type: ADME, organism-based; parameters: dose 1 mg/kg, route intravenous; conditions: in vivo

| SMILES | Activity (Mus musculus [2]) | Activity (Mus musculus [3]) | Activity (Mus musculus [4]) | Activity (Mus musculus [5]) | Activity (Mus musculus [6]) | Activity (Mus musculus [7]) | Activity (Mus musculus [8]) | also measured |
| --- | --- | --- | --- | --- | --- | --- | --- | --- |
| CNCCC(Oc1ccc(C(F)(F)F)cc1)c1ccccc1 (stereo not given) [FLUOXETINE] | – | – | – | – | – | – | – | bioavailability [1]: 60% |
| COc1cc(-c2cc3cc(CBr)cc(C)c3oc2=O)cc(OC)c1OC | Non-toxic | 73% | 71% | Non-toxic | Non-toxic | 16% | 49% | – |
| COc1ccc(-c2cc3cc(CNc4ccc(C)cc4)cc(C)c3oc2=O)cc1 | Non-toxic | 80% | 75% | Non-toxic | Non-toxic | 17% | 53% | AUC(0-inf) [9]: 316 ng·h/mL; bioavailability [10]: 73.4%; Vd (Mus musculus [11]): 30.45 L/kg; half-life [12]: 3.21 h; half-life [13]: 7.57 h; Tmax [14]: 2 h; CL/F [15]: 47.2 mL/min/kg; AUC(0-inf) [16]: 2330 ng·h/mL; Cmax [17]: 256 ng/mL; clearance [18]: 67.3 mL/min/kg; Vd [19]: 18 L/kg; Cmax [20]: 105 ng/mL |
| COc1ccc(-c2cc3cc(CBr)cc(C)c3oc2=O)cc1OC | – | 61% | – | – | – | – | – | – |
| COc1ccc(-c2cc3cc(CBr)cc(C(C)(C)C)c3oc2=O)cc1OC | – | 55% | – | – | – | – | – | – |
| COc1ccc(-c2cc3cc(CO)cc(C(C)(C)C)c3oc2=O)cc1OC | – | 58% | – | – | – | – | – | – |

Reference: ChEMBL document CHEMBL3351433, “Synthesis and evaluation of new 3-phenylcoumarin derivatives as potential antidepressant agents” (Bioorg Med Chem Lett, 2014)
